Tests used:
Assay in all cases: relative viability (nuclei count vs DMSO), 5 days (fraction); higher = more cells survive
AZD8055 = compound: COc1ccc(-c2ccc3c(N4CCOC[C@@H]4C)nc(N4CCOC[C@@H]4C)nc3n2)cc1CO [AZD8055]
In short: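 For viability, nuclei in each treated well were divided by nuclei in vehicle wells and the median across plates was taken. Lung cancer cell lines in 1536-well plates were pinned with five library-drug doses (not always all listed) spaced by √10, cultured 5 days without medium change, and imaged at 4× after Hoechst staining, with plates passing only at control CV below 25% and at least one doubling.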

AZD8055 + Trametinib = compound: COc1ccc(-c2ccc3c(N4CCOC[C@@H]4C)nc(N4CCOC[C@@H]4C)nc3n2)cc1CO [AZD8055] + CC(=O)Nc1cccc(-n2c(=O)n(C3CC3)c(=O)c3c(Nc4ccc(I)cc4F)n(C)c(=O)c(C)c32)c1 [Trametinib] (partner 0.02 µM)
In short: (§1)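 Medians of duplicate plates are given as relative viability. That measure is the nuclei count in treated wells divided by the count in vehicle wells. Counts were taken on 4× images of lung cancer cell lines in 1536-well plates, 5 days after pin-tool dosing the day after seeding with one drug alone or a fixed anchor-drug dose plus five library-drug doses (not always all listed) in √10 steps.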

AZD8055 + OSI-027 = compound: COc1ccc(-c2ccc3c(N4CCOC[C@@H]4C)nc(N4CCOC[C@@H]4C)nc3n2)cc1CO [AZD8055] + COc1cccc2cc(-c3nc([C@H]4CC[C@H](C(=O)O)CC4)n4ncnc(N)c34)[nH]c12 [OSI-027] (partner 0.5 µM)
In short: as §1

AZD8055 + Phenformin = compound: COc1ccc(-c2ccc3c(N4CCOC[C@@H]4C)nc(N4CCOC[C@@H]4C)nc3n2)cc1CO [AZD8055] + N=C(N)NC(=N)NCCc1ccccc1 [Phenformin] (partner 250 µM)
In short: as §1

NCI-H2342
relative viability (AZD8055; 0.01 µM): 1.19 | relative viability (AZD8055; 0.03162 µM): 0.881 | relative viability (AZD8055; 0.1 µM): 0.735 | relative viability (AZD8055; 0.3162 µM): 0.476 | relative viability (AZD8055; 1 µM): 0.572 | relative viability (AZD8055 + Trametinib; first compound 0.01 µM): 0.894 | relative viability (AZD8055 + Trametinib; first compound 0.03162 µM): 0.731 | relative viability (AZD8055 + Trametinib; first compound 0.1 µM): 0.598 | relative viability (AZD8055 + Trametinib; first compound 0.3162 µM): 0.552 | relative viability (AZD8055 + Trametinib; first compound 1 µM): 0.525 | relative viability (AZD8055 + OSI-027; first compound 0.01 µM): 0.598 | relative viability (AZD8055 + OSI-027; first compound 0.03162 µM): 0.621 | relative viability (AZD8055 + OSI-027; first compound 0.1 µM): 0.571 | relative viability (AZD8055 + OSI-027; first compound 0.3162 µM): 0.529 | relative viability (AZD8055 + OSI-027; first compound 1 µM): 0.594 | relative viability (AZD8055 + Phenformin; first compound 0.01 µM): 0.609 | relative viability (AZD8055 + Phenformin; first compound 0.03162 µM): 0.495 | relative viability (AZD8055 + Phenformin; first compound 0.1 µM): 0.429 | relative viability (AZD8055 + Phenformin; first compound 0.3162 µM): 0.394 | relative viability (AZD8055 + Phenformin; first compound 1 µM): 0.437

NCI-H2347
relative viability (AZD8055; 0.01 µM): 1.14 | relative viability (AZD8055; 0.03162 µM): 0.942 | relative viability (AZD8055; 0.1 µM): 0.911 | relative viability (AZD8055; 0.3162 µM): 0.5 | relative viability (AZD8055; 1 µM): 0.48 | relative viability (AZD8055 + Trametinib; first compound 0.01 µM): 0.282 | relative viability (AZD8055 + Trametinib; first compound 0.03162 µM): 0.299 | relative viability (AZD8055 + Trametinib; first compound 0.1 µM): 0.277 | relative viability (AZD8055 + Trametinib; first compound 0.3162 µM): 0.233 | relative viability (AZD8055 + Trametinib; first compound 1 µM): 0.233 | relative viability (AZD8055 + OSI-027; first compound 0.01 µM): 0.408 | relative viability (AZD8055 + OSI-027; first compound 0.03162 µM): 0.387 | relative viability (AZD8055 + OSI-027; first compound 0.1 µM): 0.356 | relative viability (AZD8055 + OSI-027; first compound 0.3162 µM): 0.346 | relative viability (AZD8055 + OSI-027; first compound 1 µM): 0.248 | relative viability (AZD8055 + Phenformin; first compound 0.01 µM): 0.381 | relative viability (AZD8055 + Phenformin; first compound 0.03162 µM): 0.283 | relative viability (AZD8055 + Phenformin; first compound 0.1 µM): 0.338 | relative viability (AZD8055 + Phenformin; first compound 0.3162 µM): 0.178 | relative viability (AZD8055 + Phenformin; first compound 1 µM): 0.205

NCI-H2405
relative viability (AZD8055; 0.01 µM): 0.999 | relative viability (AZD8055; 0.03162 µM): 1 | relative viability (AZD8055; 0.1 µM): 0.797 | relative viability (AZD8055; 0.3162 µM): 0.406 | relative viability (AZD8055; 1 µM): 0.407 | relative viability (AZD8055 + Trametinib; first compound 0.01 µM): 0.555 | relative viability (AZD8055 + Trametinib; first compound 0.03162 µM): 0.494 | relative viability (AZD8055 + Trametinib; first compound 0.1 µM): 0.43 | relative viability (AZD8055 + Trametinib; first compound 0.3162 µM): 0.282 | relative viability (AZD8055 + Trametinib; first compound 1 µM): 0.27 | relative viability (AZD8055 + OSI-027; first compound 0.01 µM): 0.664 | relative viability (AZD8055 + OSI-027; first compound 0.03162 µM): 0.697 | relative viability (AZD8055 + OSI-027; first compound 0.1 µM): 0.56 | relative viability (AZD8055 + OSI-027; first compound 0.3162 µM): 0.43 | relative viability (AZD8055 + OSI-027; first compound 1 µM): 0.385 | relative viability (AZD8055 + Phenformin; first compound 0.01 µM): 0.399 | relative viability (AZD8055 + Phenformin; first compound 0.03162 µM): 0.368 | relative viability (AZD8055 + Phenformin; first compound 0.1 µM): 0.341 | relative viability (AZD8055 + Phenformin; first compound 0.3162 µM): 0.302 | relative viability (AZD8055 + Phenformin; first compound 1 µM): 0.275

NCI-H3122
relative viability (AZD8055; 0.01 µM): 1.06 | relative viability (AZD8055; 0.03162 µM): 1.11 | relative viability (AZD8055; 0.1 µM): 0.846 | relative viability (AZD8055; 0.3162 µM): 0.457 | relative viability (AZD8055; 1 µM): 0.311 | relative viability (AZD8055 + Trametinib; first compound 0.01 µM): 0.227 | relative viability (AZD8055 + Trametinib; first compound 0.03162 µM): 0.195 | relative viability (AZD8055 + Trametinib; first compound 0.1 µM): 0.175 | relative viability (AZD8055 + Trametinib; first compound 0.3162 µM): 0.119 | relative viability (AZD8055 + Trametinib; first compound 1 µM): 0.0905 | relative viability (AZD8055 + OSI-027; first compound 0.01 µM): 1.09 | relative viability (AZD8055 + OSI-027; first compound 0.03162 µM): 0.846 | relative viability (AZD8055 + OSI-027; first compound 0.1 µM): 0.854 | relative viability (AZD8055 + OSI-027; first compound 0.3162 µM): 0.323 | relative viability (AZD8055 + OSI-027; first compound 1 µM): 0.236 | relative viability (AZD8055 + Phenformin; first compound 0.01 µM): 0.444 | relative viability (AZD8055 + Phenformin; first compound 0.03162 µM): 0.425 | relative viability (AZD8055 + Phenformin; first compound 0.1 µM): 0.428 | relative viability (AZD8055 + Phenformin; first compound 0.3162 µM): 0.233 | relative viability (AZD8055 + Phenformin; first compound 1 µM): 0.204

PC-3 [JPC-3]
relative viability (AZD8055; 0.01 µM): 1.08 | relative viability (AZD8055; 0.03162 µM): 1.11 | relative viability (AZD8055; 0.1 µM): 0.931 | relative viability (AZD8055; 0.3162 µM): 0.957 | relative viability (AZD8055; 1 µM): 0.609 | relative viability (AZD8055 + Trametinib; first compound 0.01 µM): 0.749 | relative viability (AZD8055 + Trametinib; first compound 0.03162 µM): 0.757 | relative viability (AZD8055 + Trametinib; first compound 0.1 µM): 0.565 | relative viability (AZD8055 + Trametinib; first compound 0.3162 µM): 0.462 | relative viability (AZD8055 + Trametinib; first compound 1 µM): 0.445 | relative viability (AZD8055 + OSI-027; first compound 0.01 µM): 0.84 | relative viability (AZD8055 + OSI-027; first compound 0.03162 µM): 0.742 | relative viability (AZD8055 + OSI-027; first compound 0.1 µM): 0.756 | relative viability (AZD8055 + OSI-027; first compound 0.3162 µM): 0.768 | relative viability (AZD8055 + OSI-027; first compound 1 µM): 0.566 | relative viability (AZD8055 + Phenformin; first compound 0.01 µM): 0.464 | relative viability (AZD8055 + Phenformin; first compound 0.03162 µM): 0.479 | relative viability (AZD8055 + Phenformin; first compound 0.1 µM): 0.47 | relative viability (AZD8055 + Phenformin; first compound 0.3162 µM): 0.464 | relative viability (AZD8055 + Phenformin; first compound 1 µM): 0.456

— the supplement of paper PMC10307832
